Test system: healthy volunteers
Experiment: Testing in healthy volunteers: warming sensation, cooling sensation, skin irritation on forearm
Assay type: in vivo, human
Conditions: at 11 wt % based on the total weight of the hydrogel composition
Protocol: In a pilot study to evaluate the hydrogel composition formulations, the different hydrogel prototypes (with a gauze on which the respective hydrogel composition was disposed) of Examples 2 (called gel B in Table 3) and 6 (called gel C in Table 3) and Comparative Example 1 (called gel A in Table 3) were tested on 8 healthy volunteers (M:F=5:3, ages 27-64), respectively. […] Three clinical parameters were considered including the cooling sensation, the warming sensation and irritation/erythema on the applied skin area. In this pilot study, each participant has applied the topical hydrogels (120 mm×100 mm×5 mm; 70 g) on to their forearm (one gel per forearm at a time) and scored their subjective warming and cooling sensations at 5, 10, 20, and 30 min after hydrogel application according to Table 2. The skin irritation reaction was also examined and scored by a researcher according to Table 2.

## COC(=O)c1ccccc1O [Methyl salicylate, methyl salicylate]
  irritation by methyl salicylate in hydrogel: showed irritation

Reference: patent US20170224613A1, “HYDROGEL COMPOSITIONS, METHODS FOR PREPARING THE SAME AND USES THEREOF” (CHONGQING MJ MEDICAL DEVICES CO., LTD., priority 2014, published 2017)
